Assay results taken from patent US12458614B2, “Therapeutic agents for improved mobility and cognitive function and for treating neurodegenerative diseases and lysosomal storage disorders” (priority 2017, dated 2025).
Several values for one entry are separate records, joined by “and”; a condition that tells them apart may be missing. Equal entries are not always repeated.

Assays:
Npc1−/− mice [1] = assay: Observation of coat condition and disease symptoms; assay type: in vivo, mouse; conditions: Npc1−/− mice treated from weaning
Source text: Separate groups of Npc1^-/- and Npc1^+/+ mice were left untreated, as controls.

Npc1−/− mice [2] = assay: Motor function analysis (Open Field Activity Monitor); assay type: in vivo, mouse; conditions: nine weeks of age
Experimental: (§1) Separate groups of Npc1^−/− and Npc1^+/+ mice were left untreated, as controls. Motor function analysis was performed on mice at eight and nine weeks of age using an Open Field Activity Monitor according to manufacturer's instructions (Linton Instruments, Amlogger Software). Each mouse was placed in a plastic cage with bedding and analysed for five minutes. Rears were counted manually. Motor function parameters measured were: • 1. Centre Rearing: mice rearing on hind legs unsupported; • 2. Rearing: mice rearing on hind legs with and without the support of cage walls; • 3. Activity: regular movement of the animal including walks; • 4. Front to Back (FR) count: movement of the animal from front to back of the cage; • 5. Active Time: duration (s/min) of activeness regardless of movement; • 6. Mobile Time: duration (s/min) of mobility; • 7. Rearing Time: duration of any rearing. Results Coat Condition

wild-type (Npc1+/+) mice = assay: as above; assay type: in vivo, mouse; conditions: nine weeks of age
Experimental: as §1

[3] = test system: Aspartylglucosaminuria patient fibroblasts; assay: Lysosomal volume via LysoTracker; assay type: cell-based, human; conditions: 1 mM, 6 days
[4] = test system: Mucolipidosis Type IIIA (MLIIIA) patient fibroblasts; assay: Lysosomal volume via LysoTracker; assay type: cell-based, human; conditions: 1 mM, 6 days
[5] = test system: Sandhoff disease patient fibroblasts; assay: Glycosphingolipid (GSL) levels via HPLC; assay type: cell-based, human; conditions: 1 mM for 6 days
[6] = test system: patient with frontotemporal dementia with parkinsonism; assay: Case study, frontotemporal dementia with parkinsonism; assay type: in vivo, human
Source text: After approximately one month of acetyl-leucine treatment, medication was stopped and the patient was re-examined 13 days later.

[7] = test system: patients with downbeat nystagmus; assay: Case studies, downbeat nystagmus; assay type: in vivo, human
[8] = test system: patient with spinocerebellar ataxia 28 (SCA 28); assay: Case study, spinocerebellar ataxia 28; assay type: in vivo, human; conditions: SCA 28 patient, about one month, 5 g per day
Experimental: A gait analysis was performed before treatment commenced. After about one month of treatment, medication was stopped and the patient was evaluated. […] The patient reported that they no longer walked like a robot and could climb the stairs without using the banisters.

[9] = test system: patients with ataxia with oculomotor apraxia type 4; assay: Case study, ataxia with oculomotor apraxia type 4; assay type: in vivo, human; conditions: AOA4 youngest sibling
Source text: In this case study, four patients (male siblings) suffered from, and were later diagnosed with, ataxia with oculomotor apraxia type 4. The older three siblings […], at the time of disease onset. […] The older siblings began treatment with acetyl-leucine […], respectively, and have been on the treatment for approximately four years. No long-term clinical data is available for these three patients.
The youngest sibling was […] at the time of onset. […] No long-term clinical data is available for the youngest sibling.

[10] = test system: subjects with no apparent dysfunction in cognitive ability or movement/balance; assay: Psychomotor Vigilance Task (Mind Metrics App); assay type: in vivo, human
Source text: For example, the Psychomotor Vigilance Task (PVT) is a sustained-attention, reaction-timed task that measures the speed with which subjects respond to a visual stimulus. The subject monitors a screen and presses the screen as quickly as possible upon the appearance of visual stimuli. The visual stimuli will then disappear and reappear (at irregular time intervals) e.g., 10 times over the course of the test, with the subject touching the screen as quickly as possible upon each reappearance. Test performance is quantified from an average of the e.g. 10 reaction times. The subject's reaction speed and alertness was assessed using the Mind Metrics App (Psychomotor Vigilance Task, 10 trials per test). The Psychomotor Vigilance Task (PVT) is a sustained-attention, reaction-timed task that measures the speed with which subjects respond to a visual stimulus. The subject is required to monitor a screen and press the screen as quickly as possible upon the appearance of visual stimuli. The visual stimuli will then disappear and reappear (at irregular time intervals) 10 times over the course of the test, with the subject touching the screen as quickly as possible upon each reappearance. Test performance is quantified from an average of the 10 reaction times. […] The subject was assessed for 2 weeks prior to taking acetyl-leucine, which constitutes the baseline period. […] Medication was taken at least 2 hours after and 30 minutes prior to eating. The 5 g daily dose was taken in 3 separate doses throughout the day—2 g upon waking, 1.5 g prior to lunch and 1.5 g prior to the evening meal. Daily treatments and assessments continued for 4 weeks. […]

patients with vertigo = conditions: clinical results reported by various authors; cited from earlier work
[11] = DBN Patient 1, approximately 14 weeks
[12] = one line per subject (age/gender 66 M, 29 M, 55 F, 50 M, 53 M, 48 F), listed as acetyl-leucine

CC(=O)NC(CC(C)C)C(=O)O (racemic) [acetyl-DL-leucine]
Delay of discernible disease symptoms vs untreated Npc1−/− littermates (Npc1−/− mice [1]): two | Motor function properties vs untreated littermates (Npc1−/− mice [2]): significantly improved motor function | Motor function properties vs untreated littermates (wild-type (Npc1+/+) mice): no significant difference in motor function properties | LysoTracker fluorescence vs untreated disease fibroblasts [3]: trend in reducing LysoTracker fluorescence toward control level | LysoTracker fluorescence vs untreated disease fibroblasts [4]: trend in reducing LysoTracker fluorescence toward control level | GSL levels [5]: trend towards decreased GSL levels | Symptoms after suspension of treatment ([6]; re-examined 13 days after stop): symptoms worsened | Falls ([6]; under therapy): falls stopped | Speech ([6]; under therapy): improvement of speech | Gait ([6]; under therapy, 3 then 5 gram per day, about one month): significant improvement of gait | Effect of temporary suspension of the medication ([7]; DBN Patient 1): considerable deterioration | Side-effects ([7]; DBN Patient 1, 5 gram per day): no side-effects resulted | Benefit (patient report) ([7]; DBN Patient 1, after 10 days, 3 g then 5 gram per day): significant benefit | Nystagmus (clinical examination) [7, 11]: reduction of the nystagmus | Postural sway (posturography) [7, 11]: reduction of postural sway | Oscillopsia / reading and writing ([7]; DBN Patient 1, approximately 14 weeks after starting): reduced oscillopsia | Gait ([7]; DBN Patient 2, 3 g/day then 5 g/day): improvement of gait | Downbeat nystagmus (video-oculography) ([7]; DBN Patient 2, on treatment): improved | Symptomatology (patient report) [8]: improvement of the symptomatology, in particular reduced dizziness | Fine motor skills and speech (reported by mother) [9]: improved fine motor skills and improved speech at each age compared to their older siblings | % change in Reaction Time ([10]; on-treatment vs baseline, one line per subject (66 M, 29 M, 55 F, 50 M, 53 M, 48 F), listed as acetyl-leucine): −3.593% and 1.408% and 8.13% and −10.24% and −7.474% and −30.86% | Details on Subjective Improvement ([10]; one line per subject): Improvement in general | Statistically significant improvement in PVT performance on treatment? [10, 12]: Yes (4×) and No (2×) | Subjective Improvement on treatment? [10, 12]: Yes (5×) and No | Adverse effects ([10]; person five): None reported | Subjective measurements ([10]; person five): feeling less tired than usual | Adverse effects ([10]; person four): None reported | Subjective measurements ([10]; person four): improvement in general alertness | Adverse effects ([10]; person one): None reported | Subjective measurements ([10]; person one): shortening of the time required to go from ‘asleep’ to ‘fully awake’ | Adverse effects ([10]; person six): None reported | Subjective measurements ([10]; person six): no difference between on and off medication | Subjective measurements ([10]; person three): improvement in general alertness | Adverse events ([10]; person three, first week on medication, one occasion): mild dizziness/lightheadedness | Adverse effects ([10]; person two): None reported | Subjective measurements ([10]; person two): improvement in general alertness | improvement in vertigo symptomology (share of cases) (patients with vertigo): more than 95%
